These results are taken from the NIST ThermoML archive (doi:10.1016/j.jct.2019.01.025).

The structures appear in SMILES notation. Numbers after ± are expanded uncertainties.

For the data set the following is noted: 101.33 kPa, Liquid, Vibrating tube method.

In general, mass density refers to mass per unit of volume. With `CCCCO` [butan-1-ol], the mass density (293.15 K) stood at 809.77 ± 4 kg/m3; the mass density (298.15 K) is reported as 805.92 ± 4 kg/m3; the mass density (303.15 K) came out at 802 ± 4 kg/m3; the mass density (308.15 K) was found to be 798.14 ± 4 kg/m3; the mass density (313.15 K) stood at 794.24 ± 4 kg/m3; the mass density (318.15 K) is listed as 790.2 ± 4 kg/m3. In addition, the mass density (323.15 K) came out at 786.21 ± 4 kg/m3.
With `CCO` [ethanol], the mass density was determined as 789.4 ± 4 kg/m3 (293.15 K); 785.13 ± 4 kg/m3 (298.15 K); 780.75 ± 4 kg/m3 (303.15 K); 776.41 ± 4 kg/m3 (308.15 K); 772.04 ± 4 kg/m3 (313.15 K); 767.52 ± 4 kg/m3 (318.15 K). The mass density (323.15 K) amounted to 763.04 ± 4 kg/m3.
As to `CCCO` [propan-1-ol], the mass density runs as follows: (293.15 K) 803.77 ± 4 kg/m3; (298.15 K) 799.69 ± 4 kg/m3; (303.15 K) 795.58 ± 4 kg/m3; (308.15 K) 791.52 ± 4 kg/m3; (313.15 K) 787.42 ± 4 kg/m3; (318.15 K) 783.17 ± 4 kg/m3. Further, the mass density (323.15 K) is on record as 778.96 ± 4 kg/m3.
Consider `CC(C)O` [propan-2-ol], for which the mass density by setting is: (293.15 K) 785.1 ± 4 kg/m3; (298.15 K) 780.91 ± 4 kg/m3; (303.15 K) 776.57 ± 4 kg/m3; (308.15 K) 772.24 ± 4 kg/m3; (313.15 K) 767.82 ± 4 kg/m3; (318.15 K) 763.19 ± 4 kg/m3. Further, the mass density (323.15 K) amounted to 758.55 ± 4 kg/m3.
